The subject of one test is B. cereus ATCC 11778. Nature of the test: microbe, parasite or virus in culture. The method, then: (§1) Tools and materials were sterilized in an autoclave for 15 min at 121°C. Bacterial culture was grown in agar media (Mueller Hinton agar) by picking some bacterial colony using an inoculating loop, followed by incubation at 37°C for 24 h. Bacterial culture was then suspended in liquid media (Mueller Hinton Broth). The suspended bacterial culture was then incubated at 37°C for 24 h and standardized equal to 0.5 Mc Farland (2 × 10^8 CFU ml^−1). The culture was diluted into the concentration of 5 × 10^5 CFU ml^−1.
(§2) Six tetrapeptides and six cyclotetrapeptides were dissolved in DMSO 2% with a concentration of 1 µg mL^−1. Each solution was dissolved gradually. Subsequently, 12 sample solutions, ciprofloxacin, nystatin, ketoconazole and DMSO 2% were incubated on a 96-well microplate at 37°C for 18 h. The result was interpreted using a spectrophotometer, with a wavelength of 600 nm. MIC was measured as the percentage of microbial inhibition and cell death.

A further test deals with E. coli ATCC 11229. Briefly: microbe, parasite or virus in culture. To be noted: ATCC 11229, 18 h. The protocol:
as §1, §2

A further test relates to K. pneumonia ATCC 2357. Briefly: microbe, parasite or virus in culture. As to conditions: ATCC 2357, 18 h. The method, then:
as §1, §2

For a further test, the system named is S. aureus ATCC 6538. Nature of the test: microbe, parasite or virus in culture. The protocol:
as §1, §2

In a further test the test system is C. albicans ATCC 10231. The protocol: (§3) Tools and materials were sterilized in an autoclave for 15 min at 121°C. Fungal culture was grown in agar media (Potato Dextrose agar) by picking some fungal colony using an inoculating loop, followed by incubation at 30°C for 24–48 h. Fungal culture was then suspended in liquid media (Potato Dextrose Broth). The suspended fungal culture was then incubated for 24–48 h at 30°C. The suspended fungal culture was then incubated at 30°C for 24 h and standardized equal to 0.5 Mc Farland (2 × 10^8 CFU ml^−1). The culture was diluted into the concentration of 5 × 10^5 CFU ml^−1.
as §2

In a further test the test system is T. mentagrophyte. Briefly: microbe, parasite or virus in culture. As to conditions: 18 h. The protocol:
as §3, §2

[1] abbreviates: Mueller Hinton Broth, 5 × 10^5 CFU ml^−1, DMSO 2%, 96-well microplate, 37°C, 18 h, read at 600 nm, single experiment.

Values after ≈ are worked out from the molar mass of the structure shown. Read-outs that look alike come from different tables or passages of the source. Where a SMILES comes first, the peptide text is derived from it.

Consider `CC[C@H](C)[C@H](NC(=O)[C@H](Cc1ccccc1)NC(=O)[C@H](CC(C)C)NC(=O)[C@@H]1CCCN1)C(=O)O` [PLFI] (H-PLFI-OH), for which the “minimum inhibitory concentration (MIC) B. cereus ATCC 11778” value with B. cereus ATCC 11778 (ATCC 11778, 18 h) came out at 500 µg/mL (≈ 1020 µM). Also, the “minimum inhibitory concentration (MIC) E. coli ATCC 11229” value in the test with E. coli ATCC 11229 was above 1000 µg/mL. In addition, the “minimum inhibitory concentration (MIC) K. pneumonia ATCC 2357” value in the test on K. pneumonia ATCC 2357 is above 1000 µg/mL. Besides, in the test on S. aureus ATCC 6538 (ATCC 6538, 18 h), the “minimum inhibitory concentration (MIC) S. aureus ATCC 6538” value was above 1000 µg/mL. In addition, in the test with C. albicans ATCC 10231 (ATCC 10231, 18 h), the “minimum inhibitory concentration (MIC) C. albicans ATCC 10231” value was above 1000 µg/mL.

For `CC[C@H](C)[C@H](NC(=O)[C@@H]1CCCN1C(=O)[C@H](CC(C)C)NC(=O)[C@@H]1CCCN1)C(=O)O` [PLPI] (H-PLPI-OH), in the test on B. cereus ATCC 11778 (ATCC 11778, 18 h), the “minimum inhibitory concentration (MIC) B. cereus ATCC 11778” value was 250 µg/mL (≈ 570 µM). Moreover, the “minimum inhibitory concentration (MIC) E. coli ATCC 11229” value in the test with E. coli ATCC 11229 turned out to be 500 µg/mL (≈ 1140 µM). Besides, the “minimum inhibitory concentration (MIC) K. pneumonia ATCC 2357” value with K. pneumonia ATCC 2357 was determined as 500 µg/mL (≈ 1140 µM). The “minimum inhibitory concentration (MIC) S. aureus ATCC 6538” value in the test with S. aureus ATCC 6538 (ATCC 6538, 18 h) came to 500 µg/mL (≈ 1140 µM). In addition, in the test on C. albicans ATCC 10231 (ATCC 10231, 18 h), the “minimum inhibitory concentration (MIC) C. albicans ATCC 10231” value is above 1000 µg/mL. Moreover, the “minimum inhibitory concentration (MIC) T. mentagrophyte” value in the test with T. mentagrophyte amounted to 500 µg/mL (≈ 1140 µM).

For the compound `CC[C@H](C)[C@H](NC(=O)[C@@H](NC(=O)[C@H](CC(C)C)NC(=O)[C@@H]1CCCN1)C(C)C)C(=O)O` [PLVI] (H-PLVI-OH), the “minimum inhibitory concentration (MIC) B. cereus ATCC 11778” value in the test with B. cereus ATCC 11778 (ATCC 11778, 18 h) was found to be 500 µg/mL (≈ 1130 µM). Further, the “minimum inhibitory concentration (MIC) E. coli ATCC 11229” value with E. coli ATCC 11229 was 500 µg/mL (≈ 1130 µM). Besides, the “minimum inhibitory concentration (MIC) K. pneumonia ATCC 2357” value with K. pneumonia ATCC 2357 was 500 µg/mL (≈ 1130 µM). Besides, in the test with S. aureus ATCC 6538 (ATCC 6538, 18 h), the “minimum inhibitory concentration (MIC) S. aureus ATCC 6538” value is above 1000 µg/mL. In the test with C. albicans ATCC 10231 (ATCC 10231, 18 h), the “minimum inhibitory concentration (MIC) C. albicans ATCC 10231” value is above 1000 µg/mL.

For the compound `CC[C@H](C)[C@@H]1NC(=O)[C@H](C)NC(=O)[C@H](CCCCN)NC(=O)[C@@H]2CCCN2C1=O` [c-PKAI, cyclo-(pro-lys-ala-ile)] (cyclo(PKAI)), the “minimum inhibitory concentration (MIC) B. cereus ATCC 11778” value with B. cereus ATCC 11778 (ATCC 11778, 18 h) turned out to be 125 µg/mL (≈ 305 µM). Further, the “minimum inhibitory concentration (MIC) E. coli ATCC 11229” value in the test on E. coli ATCC 11229 amounted to 62.50 µg/mL (≈ 153 µM). In addition, in the test on K. pneumonia ATCC 2357, the “minimum inhibitory concentration (MIC) K. pneumonia ATCC 2357” value turned out to be 250 µg/mL (≈ 610 µM). Moreover, in the test with S. aureus ATCC 6538 (ATCC 6538, 18 h), the “minimum inhibitory concentration (MIC) S. aureus ATCC 6538” value was 125 µg/mL (≈ 305 µM). Also, in the test on C. albicans ATCC 10231 (ATCC 10231, 18 h), the “minimum inhibitory concentration (MIC) C. albicans ATCC 10231” value came to 125 µg/mL (≈ 305 µM). Further, the “minimum inhibitory concentration (MIC) T. mentagrophyte” value with T. mentagrophyte turned out to be 125 µg/mL (≈ 305 µM).

For `CC[C@H](C)[C@@H]1NC(=O)[C@H](Cc2ccccc2)NC(=O)[C@H](CCCCN)NC(=O)[C@@H]2CCCN2C1=O` [c-PKFI, cyclo-(pro-lys-phe-ile)] (cyclo(PKFI)), the “minimum inhibitory concentration (MIC) B. cereus ATCC 11778” value with B. cereus ATCC 11778 (setting [1]) is 62.5 µg/mL (≈ 129 µM). The “minimum inhibitory concentration (MIC) E. coli ATCC 11229” value with E. coli ATCC 11229 came to 31.25 µg/mL (≈ 64.3 µM). Also, the “minimum inhibitory concentration (MIC) K. pneumonia ATCC 2357” value in the test on K. pneumonia ATCC 2357 came out at 250 µg/mL (≈ 515 µM). Besides, the “minimum inhibitory concentration (MIC) S. aureus ATCC 6538” value in the test with S. aureus ATCC 6538 (setting [1]) was 62.5 µg/mL (≈ 129 µM). Moreover, the “minimum inhibitory concentration (MIC) C. albicans ATCC 10231” value with C. albicans ATCC 10231 (Potato Dextrose Broth, 5 × 10^5 CFU ml^−1, DMSO 2%, 96-well microplate, 37°C, 18 h, read at 600 nm, single experiment) turned out to be 62.50 µg/mL (≈ 129 µM). The “minimum inhibitory concentration (MIC) T. mentagrophyte” value in the test on T. mentagrophyte came out at 125 µg/mL (≈ 257 µM).

Consider `CC[C@H](C)[C@@H]1NC(=O)[C@H](Cc2ccccc2)NC(=O)[C@H](CC(C)C)NC(=O)[C@@H]2CCCN2C1=O` [c-PLFI, cyclo-(pro-leu-phe-ile)] (cyclo(PLFI)), for which the “minimum inhibitory concentration (MIC) B. cereus ATCC 11778” value in the test on B. cereus ATCC 11778 (ATCC 11778, 18 h) worked out at 125 µg/mL (≈ 266 µM). The “minimum inhibitory concentration (MIC) E. coli ATCC 11229” value with E. coli ATCC 11229 turned out to be 125 µg/mL (≈ 266 µM). Further, the “minimum inhibitory concentration (MIC) K. pneumonia ATCC 2357” value in the test on K. pneumonia ATCC 2357 came to 250 µg/mL (≈ 531 µM). The “minimum inhibitory concentration (MIC) S. aureus ATCC 6538” value with S. aureus ATCC 6538 (ATCC 6538, 18 h) was 500 µg/mL (≈ 1060 µM). Also, the “minimum inhibitory concentration (MIC) C. albicans ATCC 10231” value with C. albicans ATCC 10231 (ATCC 10231, 18 h) was determined as 500 µg/mL (≈ 1060 µM). In addition, in the test with T. mentagrophyte, the “minimum inhibitory concentration (MIC) T. mentagrophyte” value worked out at 250 µg/mL (≈ 531 µM).

Turning to `CC[C@H](C)[C@@H]1NC(=O)[C@@H]2CCCN2C(=O)[C@H](CC(C)C)NC(=O)[C@@H]2CCCN2C1=O` [c-PLPI, cyclo(pro-leu-pro-ile)] (cyclo(PLPI)), in the test with E. coli ATCC 11229, the “minimum inhibitory concentration (MIC) E. coli ATCC 11229” value worked out at 125 µg/mL (≈ 297 µM). The “minimum inhibitory concentration (MIC) K. pneumonia ATCC 2357” value in the test with K. pneumonia ATCC 2357 came to 250 µg/mL (≈ 594 µM). The “minimum inhibitory concentration (MIC) S. aureus ATCC 6538” value with S. aureus ATCC 6538 (ATCC 6538, 18 h) came to 250 µg/mL (≈ 594 µM). Further, in the test on C. albicans ATCC 10231 (ATCC 10231, 18 h), the “minimum inhibitory concentration (MIC) C. albicans ATCC 10231” value is above 1000 µg/mL.

Take `CC[C@H](C)[C@@H]1NC(=O)[C@H](C(C)C)NC(=O)[C@H](CC(C)C)NC(=O)[C@@H]2CCCN2C1=O` [c-PLVI, cyclo-(pro-leu-val-ile)] (cyclo(PLVI)): in the test with B. cereus ATCC 11778 (ATCC 11778, 18 h), the “minimum inhibitory concentration (MIC) B. cereus ATCC 11778” value turned out to be 125 µg/mL (≈ 296 µM). Further, the “minimum inhibitory concentration (MIC) E. coli ATCC 11229” value with E. coli ATCC 11229 amounted to 125 µg/mL (≈ 296 µM). Besides, the “minimum inhibitory concentration (MIC) K. pneumonia ATCC 2357” value with K. pneumonia ATCC 2357 is 250 µg/mL (≈ 592 µM). The “minimum inhibitory concentration (MIC) S. aureus ATCC 6538” value in the test on S. aureus ATCC 6538 (ATCC 6538, 18 h) was determined as 500 µg/mL (≈ 1180 µM). The “minimum inhibitory concentration (MIC) C. albicans ATCC 10231” value with C. albicans ATCC 10231 (ATCC 10231, 18 h) is 500 µg/mL (≈ 1180 µM). In the test with T. mentagrophyte, the “minimum inhibitory concentration (MIC) T. mentagrophyte” value worked out at 62.50 µg/mL (≈ 148 µM).

These data come from article PMC8074941, “Synthesis of cyclotetrapeptide analogues of c-PLAI and evaluation of their antimicrobial properties” (Royal Society Open Science, 2021).
